Measured values as given in patent US12414958B2, “Medicament and use thereof for treating bacterial infections involving biofilm” (Debiopharm International S.A., priority 2019, dated 2025).

Tests used:
[1] = system: ATCC 43300 MRSA strain; assay: In vivo murine model of catheter associated infection, 24 h and 72 h MRSA biofilms; design: species or system Staphylococcus aureus; conditions: for Log10 CFU/g of catheter (D 6) Mean ± SEM / ΔLog10 CFU/g of catheter from (D 1) Mean ± SEM: 5.5-day treatment (D1-D6); for Log10 CFU/g of catheter (D 6) Mean ± SEM / ΔLog10 CFU/g of catheter from (D 1) Mean ± SEM / Log10 CFU/g of catheter (D 8) Mean ± SEM / ΔLog10 CFU/g of catheter from (D 3) Mean ± SEM: BALB/c mice; for Log10 CFU/g of catheter (D 6) Mean ± SEM / Log10 CFU/g of catheter (D 8) Mean ± SEM: doses as in Table 2; for ΔLog10 CFU/g of catheter from (D 1) Mean ± SEM: change from baseline D 1; for CR (%) cure rate / mean reduction of the initial MRSA load: 5.5-day treatment; for CR (%) cure rate: percentage of mice without catheter-associated bacteria; for Log10 CFU/g of catheter (D 8) Mean ± SEM / ΔLog10 CFU/g of catheter from (D 3) Mean ± SEM: 5.5-day treatment (D3-D8); for ΔLog10 CFU/g of catheter from (D 3) Mean ± SEM: change from baseline D 3; for mean reduction of the initial MRSA load: given as positive reduction
Procedure: Two experimental settings were used in this study to evaluate the treatment efficacies against early (24h) and/or mature (72h) MRSA catheter formed biofilms. Briefly, mice were anaesthetised by an IP injection of about 120 μl a mix of ketamine (50 mg/kg) and xylazine (10 mg/kg) (4 mL ketamine+2 mL xylazine+10 mL saline). Flank on the right side was shaved and then disinfected by 3 consecutive applications of betadine. A cutaneous and then subcutaneous (SC) incisions of 0.2 cm were made under sterile conditions and a 1 cm segment of polyurethane catheter (Ref. No. ES-04730 Arrow international) cut into 2 longitudinal fragments was inserted SC (into the incision and then pushed further under the skin, about 2 cm away from the incision). The inoculation was done simultaneously by placing 50 μl of the bacterial culture onto the catheter (10^6 CFU of ATCC 43300 MRSA strain). The incision was stitched up and disinfected. The day of the infection was referred to as Day0 (D0). To ensure that the study was conducted in sterile conditions from the start to the end of the experiment, non-infected mice (sentinel group) were included. Treatments started either on D1 or D3 post infection, corresponding to early (24h) or more mature (72h) catheter formed biofilms, respectively, and lasted for 5.5 days (D1-D6) or (D3-D8). In both 24 h and 72h biofilm settings, two groups of infected non-treated animals (Vehicle controls) were evaluated for bacterial counts: at baseline (24h or D1 [for 24-h biofilm] and 72h or D3 [for 72-h biofilm] post infection, i.e. time points corresponding to treatments initiations) and at the termination of treatment duration (D6 [for 24-h biofilm] and D8 [for 72-h biofilm] post infection). Post treatment CFUs were counted on D6 or D8 and results were expressed as Log10 CFU/g of catheter (Mean±SEM). The limit of detection was determined as being 1 Log10 CFU/g of catheter. Changes of CFU/g of catheter (Δ Log10) from the baseline (D1 or D3 for 24-h and 72-h biofilm, respectively) and cure rates (corresponding to the percentage of mice without catheter-associated bacteria within a given treatment group) were also calculated. In vivo induction of antibiotic-resistant bacteria was analysed for all tested antibiotics.
Antibiotics doses were selected according to the effective doses in animals, which approximated the therapeutic human equivalent doses (HED) (Table 1).
Mice received antibiotics on D1, D2, D3, D4, D5 and D6 (only one administration at D6) or D3, D4, D5, D6, D7 and D8 (only one administration at D8). All antibiotics were administered BID IP, except Debio 1450 BES and Vancomycin, which were respectively given PO and SC. Daptomycin was tested as a once daily regimen to avoid tolerability issues. The antibiotics daily dosing was performed with a 10-12 hours interval between the two administrations. For combination therapy, antibiotics were administered simultaneously every 10-12 hours (the time required between the injection of the first antibiotic and the injection of the second antibiotic was less than 30 seconds per mouse).
In each sub-study, animals were randomly assigned to the antibiotic therapies or vehicle controls groups. Dose volumes were calculated according to individual body weight of each animal.
After blood collection, animals were sacrificed by cervical dislocation following anaesthesia. Two fragments of catheter per mouse were collected and were used for bacterial enumeration after sonication. Each fragment of catheter was individually washed under aseptic conditions in an Eppendorf tube (3 successive washing steps with 300 μl sterile saline). After the last wash, the catheter was suspended in 1 mL sterile saline, put in an ultrasonic bath (Advantage Lab) for 3 minutes at room temperature before being vigorously vortexed in order to detach all adherent bacteria from the catheter. Several successive dilutions of this suspension (undiluted, 10-2, […]) were cultured onto Chapman agar plates for 48 h at 37° C. […]

[2] = system: MSSA ATCC 29213; assay: Mouse tissue cage model of staphylococcal biofilm infection, MSSA (Example 4); type: in vivo, Staphylococcus aureus; conditions: 24-h biofilm MSSA ATCC 29213; 11-d treatment; cages explanted day 14
Procedure: After the incubation, tubes were vortexed again and bacterial regrowth was assessed visually. […] The efficacy of treatment against adherent bacteria is expressed as the cure rate (in percent), defined as the number of cages without growth divided by the total number of cages in the individual treatment group.

SMILES | Log10 CFU/g of catheter (D 6) Mean ± SEM ([1]; Biofilm (24 h)) | ΔLog10 CFU/g of catheter from (D 1) Mean ± SEM ([1]; Biofilm (24 h)) | CR (%) cure rate ([1]; Biofilm (24 h)) [%] | Log10 CFU/g of catheter (D 8) Mean ± SEM ([1]; Biofilm (72 h)) | ΔLog10 CFU/g of catheter from (D 3) Mean ± SEM ([1]; Biofilm (72 h)) | CR (%) cure rate ([1]; Biofilm (72 h)) [%] | Cure rate (%) [2] [%] | mean reduction of the initial MRSA load ([1]; 24 h biofilm) | mean reduction of the initial MRSA load ([1]; 72 h biofilm)
CCCCCCCCCC(=O)N[C@@H](Cc1c[nH]c2ccccc12)C(=O)N[C@H](CC(N)=O)C(=O)N[C@@H](CC(=O)O)C(=O)N[C@@H]1C(=O)NCC(=O)N[C@@H](CCCN)C(=O)N[C@@H](CC(=O)O)C(=O)N[C@H](C)C(=O)N[C@@H](CC(=O)O)C(=O)NCC(=O)N[C@H](CO)C(=O)N[C@@H]([C@H](C)CC(=O)O)C(=O)N[C@@H](CC(=O)c2ccccc2N)C(=O)O[C@@H]1C [Daptomycin] | 3.02 ± 0.110 Log10 CFU/g of catheter | −3.64 ± 0.110 Log10 CFU/g of catheter | 25 | 5.42 ± 0.104 Log10 CFU/g of catheter | −1.37 ± 0.104 Log10 CFU/g of catheter | 0 | – | – | –
Cc1c(CN(C)C(=O)/C=C/c2cnc3c(c2)CCC(=O)N3COP(=O)(O)O)oc2ccccc12 [Debio 1450, {6-[(1E)-3-{methyl [(3-methyl-1-benzofuran-2-yl)methyl]amino}-3-oxoprop-1-en-1-yl]-2-oxo-3,4-dihydro-1,8-naphthyridin-1 (2H)-yl} methyl dihydrogen phosphate] | 4.31 ± 0.109 Log10 CFU/g of catheter | −2.35 ± 0.109 Log10 CFU/g of catheter | 8 | 5.75 ± 0.069 Log10 CFU/g of catheter | −1.03 ± 0.069 Log10 CFU/g of catheter | 0 | 14.3 | – | –
CO[C@H]1/C=C/O[C@@]2(C)Oc3c(C)c(O)c4c(O)c(c(/C=N/N5CCN(C)CC5)c(O)c4c3C2=O)NC(=O)/C(C)=C\C=C\[C@H](C)[C@H](O)[C@@H](C)[C@@H](O)[C@@H](C)[C@H](OC(C)=O)[C@@H]1C [Rifampicin] | 2.50 ± 0.072 Log10 CFU/g of catheter | −4.17 ± 0.072 Log10 CFU/g of catheter | 39 | 3.80 ± 0.113 Log10 CFU/g of catheter | −2.98 ± 0.113 Log10 CFU/g of catheter | 8 | 100 | 4.17±0.072 Log10 CFU/g of catheter | 2.98±0.113 Log10 CFU/g of catheter
